Experimental data as given in the Kinase Knowledgebase extract (Sharma et al. 2016).

These compounds were tested against PIK3CG (human) (UniProt P48736) (assay: Assessment of PIK3CG Kinase Activity).
Chain of PIK3CG (human) (P48736 whole entry, looked up): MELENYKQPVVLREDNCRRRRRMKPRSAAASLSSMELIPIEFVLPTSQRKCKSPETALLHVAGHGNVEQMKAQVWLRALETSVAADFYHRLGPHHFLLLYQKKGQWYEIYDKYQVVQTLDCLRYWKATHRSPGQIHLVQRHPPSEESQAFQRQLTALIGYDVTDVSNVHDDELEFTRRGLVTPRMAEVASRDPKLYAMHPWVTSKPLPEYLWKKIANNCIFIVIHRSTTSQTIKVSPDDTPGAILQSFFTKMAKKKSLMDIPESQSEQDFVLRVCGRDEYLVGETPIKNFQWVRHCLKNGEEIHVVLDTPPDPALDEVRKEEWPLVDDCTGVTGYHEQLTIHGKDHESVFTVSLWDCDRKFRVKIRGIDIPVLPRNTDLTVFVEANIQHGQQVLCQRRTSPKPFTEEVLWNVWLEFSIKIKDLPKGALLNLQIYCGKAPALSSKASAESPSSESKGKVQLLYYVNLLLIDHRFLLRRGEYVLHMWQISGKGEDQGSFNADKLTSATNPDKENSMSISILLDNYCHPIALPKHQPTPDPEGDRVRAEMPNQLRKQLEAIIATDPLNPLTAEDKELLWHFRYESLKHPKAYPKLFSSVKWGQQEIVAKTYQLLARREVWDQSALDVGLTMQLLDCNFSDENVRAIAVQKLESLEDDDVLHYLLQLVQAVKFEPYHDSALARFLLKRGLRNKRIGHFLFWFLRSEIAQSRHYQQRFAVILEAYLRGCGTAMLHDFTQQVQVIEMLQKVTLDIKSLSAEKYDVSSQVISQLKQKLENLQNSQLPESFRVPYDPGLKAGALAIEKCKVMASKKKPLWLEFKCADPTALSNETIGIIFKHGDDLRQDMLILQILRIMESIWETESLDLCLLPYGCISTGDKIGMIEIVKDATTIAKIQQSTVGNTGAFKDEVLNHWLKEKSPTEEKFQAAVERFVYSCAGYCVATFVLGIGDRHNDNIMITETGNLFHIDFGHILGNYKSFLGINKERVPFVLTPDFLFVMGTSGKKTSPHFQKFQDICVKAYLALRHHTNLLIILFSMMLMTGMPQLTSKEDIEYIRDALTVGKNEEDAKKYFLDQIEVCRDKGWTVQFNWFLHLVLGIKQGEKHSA
`CN(C)CCNC(=O)Nc1nc2c(s1)-c1c(c(-c3cncnc3)nn1-c1ccccc1F)CC2` was tested, and the IC50 was < 800 nM.
With `CCOC(=O)CCCNC(=O)Nc1nc2c(s1)-c1c(c(-c3ccccc3)nn1-c1ccccc1Cl)CC2` the IC50 was < 800 nM.
`O=C(NCc1cccc(N2CCNC2=O)c1)Nc1nc2c(s1)-c1c(c(-c3cccnc3)nn1C1CCN(C3CCCC3)CC1)CC2` was tested, and the IC50 was < 800 nM.
`CCCn1cnc(CCNC(=O)Nc2nc3c(s2)-c2c(c(-c4ccccc4)nn2-c2cccc(Cl)c2)CC3)c1` was tested, and the IC50 was < 800 nM.
For `CNC(=O)[C@@H](C)NC(=O)Nc1nc2c(s1)-c1c(c(-c3ccccc3)nn1-c1ccccc1Cl)CC2`, the IC50 was < 800 nM.
In the case of `O=C(NCC1CCCNC1)Nc1nc2c(s1)-c1c(c(-c3cncnc3)nn1-c1ccccc1Cl)CC2` (stereo not drawn), the IC50 is reported as < 800 nM.
With `CNC(=O)c1cccc(CNC(=O)Nc2nc3c(s2)-c2c(c(C4CC4)nn2-c2ccccc2Cl)CC3)c1` the IC50 was < 800 nM.
With `CCc1cnc(CCNC(=O)Nc2nc3c(s2)-c2c(c(-c4cccnc4)nn2C2CCN(C)CC2)CC3)o1` the IC50 was < 800 nM.
With `CCc1csc(CCNC(=O)Nc2nc3c(s2)-c2c(c(-c4cccnc4)nn2-c2ccccc2Cl)CC3)n1` the IC50 was < 800 nM.
`CCc1cccc(CNC(=O)Nc2nc3c(s2)-c2c(c(C4CC4)nn2-c2ccccc2Cl)CC3)c1` was tested, and the IC50 was < 800 nM.
`O=C(NCCC(=O)N1CCCC1)Nc1nc2c(s1)-c1c(c(-c3cncnc3)nn1-c1ccccc1Cl)CC2` was tested, and the IC50 was < 800 nM.
`CCc1cnc(CCNC(=O)Nc2nc3c(s2)-c2c(c(-c4ccccc4)nn2-c2ccccc2Cl)CC3)o1` was tested, and the IC50 was < 800 nM.
With `O=C(NCc1ncc[nH]1)Nc1nc2c(s1)-c1c(c(-c3cccnc3)nn1-c1ccccc1Cl)CC2` the IC50 was < 800 nM.
In the case of `CC(C)c1nnc(CCNC(=O)Nc2nc3c(s2)-c2c(c(-c4cccnc4)nn2C2CCN(C)CC2)CC3)o1`, the IC50 is reported as < 800 nM.
In the case of `O=C(NCCc1cccc(C(F)(F)F)c1)Nc1nc2c(s1)-c1c(c(-c3cncnc3)nn1-c1ccccc1Cl)CC2`, the IC50 is reported as < 800 nM.
`CNC(=O)[C@H](C)NC(=O)Nc1nc2c(s1)-c1c(c(-c3ccccc3)nn1-c1ccccc1Cl)CC2` was tested, and the IC50 was < 800 nM.
With `O=C(NC[C@H]1CCCN1C(=O)Cc1ccccc1)Nc1nc2c(s1)-c1c(c(-c3cncnc3)nn1-c1ccccc1Cl)CC2` the IC50 was < 800 nM.
With `CC(C)c1noc(CCNC(=O)Nc2nc3c(s2)-c2c(c(-c4ccccc4)nn2-c2cccc(Cl)c2)CC3)n1` the IC50 was < 800 nM.
In the case of `NC(=O)Nc1cccc(CNC(=O)Nc2nc3c(s2)-c2c(c(C4CC4)nn2-c2ccccc2Cl)CC3)c1`, the IC50 is reported as < 800 nM.
`CC(C)(C)OC(=O)NCC1CCCN1C(=O)Nc1nc2c(s1)-c1c(c(-c3cccnc3)nn1-c1ccccc1Cl)CC2` (stereo not drawn) was tested, and the IC50 was < 800 nM.
In the case of `CCc1noc(CCNC(=O)Nc2nc3c(s2)-c2c(c(-c4cccnc4)nn2C2CCN(C)CC2)CC3)n1`, the IC50 is reported as < 800 nM.
For `NS(=O)(=O)c1ccc(CNC(=O)Nc2nc3c(s2)-c2c(c(-c4cncnc4)nn2-c2ccccc2Cl)CC3)cc1`, the IC50 was < 800 nM.
For `O=C(NCCc1nc(C2CC2)no1)Nc1nc2c(s1)-c1c(c(Nc3ccccn3)nn1-c1ccccc1)CC2`, the IC50 was < 800 nM.
`N#Cc1cccc(CNC(=O)Nc2nc3c(s2)-c2c(c(-c4cncnc4)nn2-c2ccccc2Cl)CC3)c1` was tested, and the IC50 was < 800 nM.
In the case of `NC(=O)Nc1cccc(CNC(=O)Nc2nc3c(s2)-c2c(c(-c4cccnc4)nn2-c2ccccc2Cl)CC3)c1`, the IC50 is reported as < 800 nM.
`CCN(CC)C(=O)N1CCC[C@@H]1CNC(=O)Nc1nc2c(s1)-c1c(c(-c3cncnc3)nn1-c1ccccc1Cl)CC2` was tested, and the IC50 was < 800 nM.
`O=C(Nc1nc2c(s1)-c1c(c(-c3cccnc3)nn1-c1ccccc1Cl)CC2)N1CCC(N2CCNC2=O)CC1` was tested, and the IC50 was < 800 nM.
With `O=C(O)CC1(CNC(=O)Nc2nc3c(s2)-c2c(c(-c4cccnc4)nn2-c2ccccc2Cl)CC3)CCCCC1` the IC50 was < 800 nM.
For `CN[C@@H](C)C(=O)N1CCC[C@@H]1CNC(=O)Nc1nc2c(s1)-c1c(c(-c3cncnc3)nn1-c1ccccc1Cl)CC2`, the IC50 was < 800 nM.
With `O=C(NCc1cccc(N2CCNC2=O)c1)Nc1nc2c(s1)-c1c(c(C3CC3)nn1-c1ccccc1Cl)CC2` the IC50 was < 800 nM.
`O=C(NCc1cccc(N2CCNC2=O)c1)Nc1nc2c(s1)-c1c(c(Nc3ccccn3)nn1-c1ccccc1)CC2` was tested, and the IC50 was < 800 nM.
`CCc1nnc(CCNC(=O)Nc2nc3c(s2)-c2c(c(-c4cncnc4)nn2-c2ccccc2Cl)CC3)o1` was tested, and the IC50 was < 800 nM.
For `Nc1nnc(CNC(=O)Nc2nc3c(s2)-c2c(c(-c4cncnc4)nn2-c2ccccc2Cl)CC3)[nH]1`, the IC50 was < 800 nM.
For `CC(C)(C)OC(=O)NCc1cccc(CNC(=O)Nc2nc3c(s2)-c2c(c(-c4cccnc4)nn2-c2ccccc2Cl)CC3)c1`, the IC50 was < 800 nM.
For `CC(C)(C)OC(=O)CCNC(=O)Nc1nc2c(s1)-c1c(c(-c3ccccc3)nn1-c1cccc(Cl)c1)CC2`, the IC50 was < 800 nM.
In the case of `O=C(NCc1cc(C2CC2)n[nH]1)Nc1nc2c(s1)-c1c(c(-c3cncnc3)nn1-c1ccccc1Cl)CC2`, the IC50 is reported as < 800 nM.
In the case of `CN(C)C(=O)CNC(=O)Nc1nc2c(s1)-c1c(c(C3CC3)nn1-c1ccccc1Cl)CC2`, the IC50 is reported as < 800 nM.
For `CN1CCC(n2nc(-c3cccnc3)c3c2-c2sc(NC(=O)NCCC(=O)N(C)C)nc2CC3)CC1`, the IC50 was < 800 nM.
For `O=C(Nc1nc2c(s1)-c1c(c(-c3cccnc3)nn1-c1ccccc1Cl)CC2)N1CCCC(c2nc3ccccc3[nH]2)C1` (stereo not drawn), the IC50 was < 800 nM.
In the case of `O=C(NC[C@@H]1CCNC1)Nc1nc2c(s1)-c1c(c(-c3cncnc3)nn1-c1ccccc1Cl)CC2`, the IC50 is reported as < 800 nM.
In the case of `CCc1cnc(CCNC(=O)Nc2nc3c(s2)-c2c(c(-c4cncnc4)nn2C2CCN(C)CC2)CC3)o1`, the IC50 is reported as < 800 nM.
For `CN(C(=O)OC(C)(C)C)C1CCN(C(=O)Nc2nc3c(s2)-c2c(c(-c4cccnc4)nn2-c2ccccc2Cl)CC3)C1` (stereo not drawn), the IC50 was < 800 nM.
For `C[C@@H](C(=O)N1CCC[C@@H]1CNC(=O)Nc1nc2c(s1)-c1c(c(-c3cncnc3)nn1-c1ccccc1Cl)CC2)N(C)C(=O)OC(C)(C)C`, the IC50 was < 800 nM.
For `NC(=O)Nc1nc2c(s1)-c1c(c(-c3cncnc3)nn1-c1ccccc1Cl)CC2`, the IC50 was < 800 nM.
In the case of `CCc1nnc(CCNC(=O)Nc2nc3c(s2)-c2c(c(C4CC4)nn2-c2ccccc2Cl)CC3)o1`, the IC50 is reported as < 800 nM.
In the case of `CC(C)c1cccc(CNC(=O)Nc2nc3c(s2)-c2c(c(C4CC4)nn2-c2ccccc2Cl)CC3)c1`, the IC50 is reported as < 800 nM.
`CCc1cnc(CCNC(=O)Nc2nc3c(s2)-c2c(c(-c4cccnc4)nn2C2CCN(C4CCCC4)CC2)CC3)o1` was tested, and the IC50 was < 800 nM.
`O=C(NCCN1CCNC1=O)Nc1nc2c(s1)-c1c(c(-c3cccnc3)nn1-c1ccccc1Cl)CC2` was tested, and the IC50 was < 800 nM.
`CC(C)(C)OC(=O)CNC(=O)Nc1nc2c(s1)-c1c(c(-c3cccnc3)nn1C1CCN(C3CCCC3)CC1)CC2` was tested, and the IC50 was < 800 nM.
`O=C(Nc1nc2c(s1)-c1c(c(-c3cncnc3)nn1-c1ccccc1Cl)CC2)NC1CCCNC1` (stereo not drawn) was tested, and the IC50 was < 800 nM.
`CN1CCC(n2nc(-c3cncnc3)c3c2-c2sc(NC(=O)NC[C@H]4CCCN4C(=O)OC(C)(C)C)nc2CC3)CC1` was tested, and the IC50 was < 800 nM.
With `CN1CCC(C(=O)N2CCC[C@@H]2CNC(=O)Nc2nc3c(s2)-c2c(c(-c4cncnc4)nn2-c2ccccc2Cl)CC3)C1` (stereo partly drawn) the IC50 was < 800 nM.
With `O=C(NCC1CCCN(c2ncccn2)C1)Nc1nc2c(s1)-c1c(c(-c3cccnc3)nn1-c1ccccc1Cl)CC2` (stereo not drawn) the IC50 was < 800 nM.
With `CC(C)(C)OC(=O)CCNC(=O)Nc1nc2c(s1)-c1c(c(C3CC3)nn1-c1ccccc1Cl)CC2` the IC50 was < 800 nM.
In the case of `C[C@@H](NC(=O)Nc1nc2c(s1)-c1c(c(-c3ccccc3)nn1-c1ccccc1Cl)CC2)C(=O)N(C)C`, the IC50 is reported as < 800 nM.
With `O=C(Nc1nc2c(s1)-c1c(c(-c3ccccc3)nn1-c1ccccc1Cl)CC2)NC1CCN(S(=O)(=O)c2ccccc2)CC1` the IC50 was < 800 nM.
For `CCc1cnc(CCNC(=O)Nc2nc3c(s2)-c2c(c(-c4cncnc4)nn2-c2ccccc2Cl)CC3)o1`, the IC50 was < 800 nM.
For `O=C(Nc1cccc(N2CCNCC2)c1)Nc1nc2c(s1)-c1c(c(-c3cncnc3)nn1-c1ccccc1F)CC2`, the IC50 was < 800 nM.
